# Measured values from patent publication US8945549B2, “Methods of treating antinociceptive tolerance” (Saint Louis University, priority 2010, dated 2015).
# Assays:
# S1P = S1P levels in dorsal horn tissue by ELISA; type: in vivo, rat
# Male Sprague Dawley rats [1] = assay: Antinociceptive tolerance (tail flick after acute morphine) in rats with chronic s.c. morphine or saline infusion; type: in vivo, rat; conditions: for development of morphine antinociceptive tolerance: daily i.th for 6 days with s.c. morphine infusion, Myr 0.3, FB1 1, D609 1, DMS 0.3, SK-1 0.3 μM/day; for effect on antinociceptive responses to acute morphine: drug alone vs Veh-Sal; for effect on antinociceptive responses to acute morphine / % MPE (Tail-flick): day 6; for % MPE (Tail-flick): drug given alone i.th daily over 6 days to saline-infused rats, response to acute morphine, mean ± SEM; for effect on tail flick latencies when given alone: daily i.th 3 μM/day, saline-infused rats, vs vehicle group
# Experimental: (§1) Osmotic pump implantation. Rats, under light isoflurane anesthesia, were subcutaneously implanted (in the interscapular region) with osmotic pumps (Alzet 2001; Alza, Mountain View Calif.), to deliver saline at 1 μl/h or morphine at 75 μg μl^−1h^−1 over 7 days as described (Vera-Portocarrero et al., 2006). Minipumps were filled according to manufacturer's specifications. The use of the osmotic pump ensures a continuous delivery of morphine avoiding intermittent periods of withdrawal. The integrity of the pump delivery system was reexamined at the end of each experiment when the spinal cords were harvested.
# (§2) Drug administration. The test substances fumonisin B1 (FB 1, Sigma-Aldrich, St. Louis, Mo.), myriocin (Myr Sigma-Aldrich, St. Louis, Mo.), D609 (Tricyclodecan-9-ylxanthogenate, K; Calbiochem, San Diego, Calif.), DMS (N,N-Dimethylsphingosine, Caymen Chemical, Ann Arbor, Mich.), SK-I 2-(p-hydroxyanilino)-4-(p-chlorophenyl) thiazole, Calbiochem, San Diego, Calif.) or their vehicle (0.5% in DMSO) were delivered by intrathecal (i.th) injection in rats chronically implanted with i.th cannulas as described previously (Storkson et al., 1996). Test substances were injected i.th once a day for 6 days in a total volume of 10 μl followed by a 10 μl flush with sterile physiological saline.
# After the Hargreave's test, the development of antinociceptive tolerance was determined in all animals as follows. Acute nociception. The tail flick test which measures, withdrawal latencies of the tail from a noxious radiant heat source was used to measure thermal nociceptive sensitivity with baseline latencies of 4-5 sec and it cut-off time of 10 sec to prevent tissue injury (D'Amour, 1941). […]. Test substances or vehicle were given on day 0-6 after completion of the behavioral tests. At the required time points, after the behavioral tests, spinal cord tissues from the lumbar, enlargement segment of the spinal cord (L4-L6) and dorsal horn tissues were removed and tissues processed for immunohistochemical, Western blot and biochemical analysis. All experiments were conducted with the experimenters blinded to treatment conditions. […]
# Male Sprague Dawley rats [2] = assay: Thermal hyperalgesia (Hargreaves paw-withdrawal latency) in rats with chronic s.c. morphine or saline infusion; type: in vivo, rat; conditions: for development of morphine-induced hyperalgesia: daily i.th for 6 days with s.c. morphine infusion, Myr 0.3, FB1 1, D609 1, DMS 0.3, SK-1 0.3 μM/day; for effect on paw-withdrawal latencies: drug alone vs Veh-Sal; for effect on paw-withdrawal latencies / Paw-Withdrawal Latency: day 6; for Paw-Withdrawal Latency: drug given alone i.th daily over 6 days to saline-infused rats, mean ± SEM; for effect on hindpaw withdrawal latencies when given alone: daily i.th 3 μM/day, saline-infused rats, vs vehicle group
# Experimental: as §1, §2
# Behavioral tests. Thermal hyperalgesia. The method of Hargreaves and colleagues was used to assess changes in baseline nociceptive responses to a thermal nociceptive stimulus (Hargreaves et al., 1988). Animals were allowed to acclimate within a Plexiglas enclosure on a clear glass plate in a quiet testing room. A radiant heat source is focused onto the plantar aspect of the hindpaw with baseline latencies of 18-20 sec. and a maximal cutoff time of 20 sec to prevent tissue damage. The paw-withdrawal latency is determined by a motion detector activated by the paw withdrawal, stopping a timer. Foot withdrawal latencies were taken on the day before implantation of the minipumps (baseline) and subsequently on days 1, 3 and 6 of the experimental period to determine whether morphine-tolerant animals develop increased sensitivity to thermal stimulation. A significant (P<0.05) reduction in paw-withdrawal latency over time and before implantation of the osmotic minipump is characterized as thermal hyperalgesia. […]
# [3] = biological target: S1P1 subtype, human receptor (Homo sapiens, UniProt P21453); conditions: GTP-γS binding assay; cited from earlier work
# S1P1 subtype, human receptor, sequence (P21453 whole entry): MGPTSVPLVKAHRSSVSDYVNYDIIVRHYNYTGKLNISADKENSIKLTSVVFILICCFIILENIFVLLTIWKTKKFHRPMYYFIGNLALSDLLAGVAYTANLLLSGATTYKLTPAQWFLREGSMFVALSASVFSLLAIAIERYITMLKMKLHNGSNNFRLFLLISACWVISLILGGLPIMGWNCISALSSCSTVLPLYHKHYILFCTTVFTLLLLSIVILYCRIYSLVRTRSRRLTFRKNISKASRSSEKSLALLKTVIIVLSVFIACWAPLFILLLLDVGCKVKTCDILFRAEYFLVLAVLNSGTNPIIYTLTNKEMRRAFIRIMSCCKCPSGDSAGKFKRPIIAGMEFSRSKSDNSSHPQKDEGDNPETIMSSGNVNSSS
# murine S1P1 subtype = murine S1P1 subtype (Mus musculus, UniProt O08530); conditions: cited from earlier work
# murine S1P1 subtype, sequence (O08530 whole entry): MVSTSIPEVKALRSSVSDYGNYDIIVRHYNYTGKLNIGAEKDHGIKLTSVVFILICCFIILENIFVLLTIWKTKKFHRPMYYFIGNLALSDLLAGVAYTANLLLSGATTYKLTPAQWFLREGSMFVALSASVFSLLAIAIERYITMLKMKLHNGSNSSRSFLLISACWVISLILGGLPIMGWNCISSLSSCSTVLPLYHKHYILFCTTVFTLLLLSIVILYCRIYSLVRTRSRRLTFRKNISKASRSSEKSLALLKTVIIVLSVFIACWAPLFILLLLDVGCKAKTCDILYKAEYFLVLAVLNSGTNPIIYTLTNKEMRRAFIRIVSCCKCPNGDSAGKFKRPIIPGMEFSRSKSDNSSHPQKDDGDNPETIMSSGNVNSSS
# [4] = system: other known S1P receptor subtypes; conditions: at doses as high as 10-20 μM; cited from earlier work
# rats [5] = assay: Ceramide-induced thermal hyperalgesia (intraplantar); type: in vivo, rat
# rats [6] = assay: Antinociceptive response to acute morphine (tail flick latency); type: in vivo, rat; conditions: W146 1 pM i.th 15 min before morphine 1, 3 or 6 mg/kg i.p; tail flick 30 min after morphine
# Experimental: Acute nociception. The tail flick test, which measures withdrawal latencies of the tail from a noxious radiant heat source, was used to measure thermal nociceptive sensitivity with baseline latencies of 2-3 sec and a cut-off time of 10 sec to prevent tissue injury (D'Amour, J Pharmacol Exp Ther 72, 74-79 (1941)). […] Test substances or vehicle were given on day 0 through 6 after completion of the behavioral tests.
# (§3) Tail flick latency (s) was tested before and 30 min after morphine (FIG. 26).
# Male Sprague Dawley rats [7] = assay: Paclitaxel-induced neuropathic pain (mechano-allodynia, mechano-hyperalgesia); type: in vivo, rat
# Experimental: Paclitaxel-Induced: Paclitaxcel-induced pain was studied by means of the well-characterized rat model developed by Bennett in which repeated intraperitoneal (i.p) injections of low doses of paclitaxel are administered to induce neuropathic pain (methano-allodynia and mechano-hyperalgesia) with little systemic toxicity or motor impairment (Polomano et al., Pain 94, 293-304 (2001)). The behavioral responses last for several weeks to months, thus modeling painful neuropathies in patients. Paclitaxel (Parentapharm. Yardley, Pa.) or its vehicle (Cremophor EL and 95% dehydrated ethanol in 1:1 ratio) was injected i.p in rats on four alternate days (day 0, 2, 4 and 6 with a final cumulative dose of 4 mg/kg). MnTE-2-PyP^5+, W146 (source), W140 (source) or their vehicle were delivered by intrathecal (i.th) injection (total volume of 10 μl followed by a 10 μl flush with sterile physiological saline) in rats chronically implanted with i.th cannulas using the L5/L6 lumbar approach, as described previously and Commonly used for drug delivery (Ramos et al. Neuroscience 169, 1888-1900 (2010); Schoeniger-Skinner, Brain Behav Immun 21, 660-667 (2007); Doyle, et al. Neurosci Lett (2010)). Drugs were injected 30 min before paclitaxel or its vehicle from day (D) 0 and then daily up to D15. In another set of experiments, Fingolimod (Fingolimod, Cayman Chemicals, Ann Arbor, Mich.) or its vehicle (1.2% ethanol in saline) were given by intraperitoneal injection (i.p., 0.2 ml) from D0 to D15; behavioral testing was carried out on D0 and at baseline and subsequently on D12, D16 and D22.
# Behavioral testing: Baseline values were taken from all rats on day 0 Baseline. Drugs or vehicles under investigation were then given, followed 30 min later by a chemotherapeutic or vehicle. Behavioral testing was subsequently carried out on D12, D16 and D22.
# Mechano-Allodynia and mechano-hyperalgesia: Mechanical withdrawal thresholds were assessed with an automated electronic version of the von Frey test (dynamic plantar aesthesiometer, model 37450; Ugo Basile, Milan, Italy). Each rat was placed in a Plexiglas chamber (28×40×35-cm, wire mesh floor) and allowed to acclimate for fifteen minutes. […] The pressure evoking a clear voluntary hind-paw withdrawal response (normally 40-45 g) was recorded automatically and taken as the mechanical threshold index. Mechanical threshold was assessed three times at each time point to yield a mean value, which is reported as mean absolute threshold (grams, g). […] Mechanical-hyperalgesia was assessed by the Randall and Sellitto paw pressure test 6 using an Ugo-Basile analgesiometer, which applies a linearly increasing mechanical force to the dorsum of the rat's hind paw. […]
# rats [8] = conditions: rat, in vivo
# Experimental: as §3
# [9] = S1P-induced thermal hyperalgesia (intraplantar); type: in vivo; conditions: intraplantar W146 15 minutes before intraplantar S1P
# rats [10] = assay: Carrageenan-induced thermal hyperalgesia; type: in vivo, rat
# S1P5 = S1P5 (Homo sapiens, UniProt Q9H228); conditions: relative to S1P1; cited from earlier work
# S1P5, sequence (Q9H228 whole entry, species assumed): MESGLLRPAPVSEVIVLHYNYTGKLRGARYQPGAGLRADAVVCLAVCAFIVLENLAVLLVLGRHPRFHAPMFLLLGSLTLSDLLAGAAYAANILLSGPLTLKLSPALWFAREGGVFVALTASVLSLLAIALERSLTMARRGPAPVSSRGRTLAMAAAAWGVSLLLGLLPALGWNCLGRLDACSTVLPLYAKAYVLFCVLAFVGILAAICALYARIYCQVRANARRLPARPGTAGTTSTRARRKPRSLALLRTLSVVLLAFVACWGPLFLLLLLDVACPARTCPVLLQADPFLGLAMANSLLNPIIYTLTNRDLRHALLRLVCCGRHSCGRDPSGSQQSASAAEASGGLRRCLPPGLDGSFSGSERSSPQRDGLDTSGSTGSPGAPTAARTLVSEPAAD
# S1P2 = S1P2 (Homo sapiens, UniProt O95136); conditions: cited from earlier work
# S1P2, sequence (O95136 whole entry, species assumed, the tested form may be a part): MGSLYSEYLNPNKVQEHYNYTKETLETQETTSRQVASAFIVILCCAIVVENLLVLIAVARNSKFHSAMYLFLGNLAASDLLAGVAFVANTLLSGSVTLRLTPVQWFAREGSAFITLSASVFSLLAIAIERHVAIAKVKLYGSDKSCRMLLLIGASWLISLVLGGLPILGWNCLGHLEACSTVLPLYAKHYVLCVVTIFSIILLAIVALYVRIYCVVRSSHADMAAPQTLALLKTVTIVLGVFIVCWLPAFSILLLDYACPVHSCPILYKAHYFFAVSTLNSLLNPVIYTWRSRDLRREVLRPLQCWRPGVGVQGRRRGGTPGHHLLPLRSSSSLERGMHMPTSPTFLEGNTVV
# Male Sprague Dawley rats [11] = assay: Antinociceptive tolerance (tail flick after acute morphine) in rats with chronic s.c. morphine or saline infusion; type: in vivo, rat; conditions: acute i.th injection; n=4, not shown
# [12] = Carrageenan-induced inflammation; type: in vivo; conditions: intraplantar injection 15 min before carrageenan
# [13] = 3 μM/day i.th co-administered with morphine infusion
# [14] = daily intrathecal, W146 0.3-3 μM/day, W140 3 μM/day
structure (smiles),measurement,setting,value
"CCCC[C@@H](C)[C@@H](OC(=O)C[C@@H](CC(=O)O)C(=O)O)[C@H](C[C@@H](C)C[C@H](O)CCCC[C@@H](O)C[C@H](O)[C@H](C)N)OC(=O)C[C@@H](CC(=O)O)C(=O)O [FB1, fumonisin B1]",S1P (pg/mg tissue),"S1P; rat, in vivo",1.4 ± 0.06 pg/mg tissue
same,effect on S1P levels in spinal cord tissues,"S1P; rat, in vivo",did not affect
same,morphine-induced increased production of S1P in dorsal horn tissues,"S1P; rat, in vivo, sc",blocked
same,development of morphine antinociceptive tolerance,Male Sprague Dawley rats [1],blocked
same,effect on antinociceptive responses to acute morphine,Male Sprague Dawley rats [1],did not affect
same,% MPE (Tail-flick),Male Sprague Dawley rats [1],92 ± 3.2%
same,development of morphine-induced hyperalgesia,Male Sprague Dawley rats [2],blocked
same,effect on paw-withdrawal latencies,Male Sprague Dawley rats [2],did not affect
same,Paw-Withdrawal Latency,Male Sprague Dawley rats [2],19 ± 0.8 s
CCCCCCc1cccc(NC(=O)[C@@H](N)CCP(=O)(O)O)c1 [W140],effect on tail flick latencies when given alone,Male Sprague Dawley rats [1],had no effect
same,effect on hindpaw withdrawal latencies when given alone,Male Sprague Dawley rats [2],had no effect
"S=C([S-])OC1CC2CC1C1CCCC21.[K+] (stereo not drawn) [D609, Tricyclodecan-9-ylxanthogenate, K]",S1P (pg/mg tissue),"S1P; rat, in vivo",1.5 ± 0.06 pg/mg tissue
same,effect on S1P levels in spinal cord tissues,"S1P; rat, in vivo",did not affect
same,morphine-induced increased production of S1P in dorsal horn tissues,"S1P; rat, in vivo, sc",blocked
same,development of morphine antinociceptive tolerance,Male Sprague Dawley rats [1],blocked
same,effect on antinociceptive responses to acute morphine,Male Sprague Dawley rats [1],did not affect
same,% MPE (Tail-flick),Male Sprague Dawley rats [1],92 ± 3.0%
same,development of morphine-induced hyperalgesia,Male Sprague Dawley rats [2],blocked
same,effect on paw-withdrawal latencies,Male Sprague Dawley rats [2],did not affect
same,Paw-Withdrawal Latency,Male Sprague Dawley rats [2],19 ± 0.7 s
"CCCCCCC(=O)CCCCCC/C=C/C[C@@H](O)[C@H](O)[C@@](N)(CO)C(=O)O [Myr, myriocin]",effect on S1P levels in spinal cord tissues,"S1P; drug alone vs Veh-Sal, day 6",did not affect
same,S1P (pg/mg tissue),"S1P; rat, in vivo",1.2 ± 0.05 pg/mg tissue
same,morphine-induced increased production of S1P in dorsal horn tissues,"S1P; rat, in vivo, sc",blocked
same,development of morphine antinociceptive tolerance,Male Sprague Dawley rats [1],blocked
same,effect on antinociceptive responses to acute morphine,Male Sprague Dawley rats [1],did not affect
same,% MPE (Tail-flick),Male Sprague Dawley rats [1],91 ± 3.0%
same,development of morphine-induced hyperalgesia,Male Sprague Dawley rats [2],blocked
same,effect on paw-withdrawal latencies,Male Sprague Dawley rats [2],did not affect
same,Paw-Withdrawal Latency,Male Sprague Dawley rats [2],19 ± 0.5 s
CCCCCCc1cccc(NC(=O)[C@H](N)CCP(=O)(O)O)c1 [W146],block of development of antinociceptive tolerance,Male Sprague Dawley rats [1]; [13],> 90%
same,effect on tail flick latencies when given alone,Male Sprague Dawley rats [1],had no effect
same,Ki,[3],~80 nM
same,potency at the murine S1P1 subtype relative to human,murine S1P1 subtype,equipotency
same,antagonistic or agonistic activity against other S1P receptor subtypes,[4],No-antagonistic (or agonistic) activity
same,effect when given alone (no ceramide),rats [5],had no effect
same,ceramide-induced thermal hyperalgesia,"rats [5]; LT1002 242 μg, LT1017 286 μg, W146 0.3, 0.6 or 1.2 μg, W140 1.2 μg",inhibited
same,effect on dose-response to acute morphine,rats [6],did not modify
same,baseline withdrawal thresholds when given alone,"Male Sprague Dawley rats [7]; W146 3 μM/day, highest dose tested",did not affect
same,development of paclitaxel-induced mechano-allodynia,Male Sprague Dawley rats [7]; [14],attenuated in a dose-dependent manner
same,development of paclitaxel-induced mechano-hyperalgesia,Male Sprague Dawley rats [7]; [14],attenuated in a dose-dependent manner
same,reversal of Paclitaxel-induced neuropathic pain,"Male Sprague Dawley rats [7]; given i.p on day 16, behavioral testing 60 minutes later",reverses
same,observable side effects,rats [8],No observable side effects
same,block of development of thermal hyperalgesia,Male Sprague Dawley rats [2]; [13],> 90%
same,effect on hindpaw withdrawal latencies when given alone,Male Sprague Dawley rats [2],had no effect
same,development of S1P-induced thermal hyperalgesia,[9],blocked
same,carrageenan-induced hyperalgesia,"rats [10]; W146, FIG. 14",blocks
CCCCCCCCc1ccc(CC[C@](N)(CO)COP(=O)(O)O)cc1 [Fingolimod-P],binding affinity for S1P5,S1P5,slightly lower affinity
same,binding affinity for S1P2,S1P2,no reported affinity
"Oc1ccc(Nc2nc(-c3ccc(Cl)cc3)cs2)cc1 [SK-1, 2-(p-hydroxyanilino)-4-(p-chlorophenyl) thiazole]",morphine-induced increased production of S1P in dorsal horn tissues,"S1P; daily i.th for 6 days with s.c. morphine infusion, Myr 0.3, FB1 1, D609 1, DMS 0.3, SK-1 0.3 μM/day",blocked
same,effect on S1P levels in spinal cord tissues,"S1P; drug alone vs Veh-Sal, day 6",did not affect
same,S1P (pg/mg tissue),"S1P; rat, in vivo",1.3 ± 0.06 pg/mg tissue
same,development of morphine antinociceptive tolerance,Male Sprague Dawley rats [1],blocked
same,effect on antinociceptive responses to acute morphine,Male Sprague Dawley rats [1],did not affect
same,% MPE (Tail-flick),Male Sprague Dawley rats [1],99 ± 0.9%
same,reversal of tolerance once established,Male Sprague Dawley rats [11],did not reverse
same,development of morphine-induced hyperalgesia,Male Sprague Dawley rats [2],blocked
same,effect on paw-withdrawal latencies,Male Sprague Dawley rats [2],did not affect
same,Paw-Withdrawal Latency,Male Sprague Dawley rats [2],19 ± 0.7 s
same,carrageenan-induced inflammation,[12],blocks
same,carrageenan-induced thermal hyperalgesia,"rats [10]; intraplantar SK-1 250, 500 or 1000 ng",attenuated in a dose-dependent manner
